pIC50: −log10 of the molar value. Structures can show the parent of a compound that is named as a salt.

Experimental findings from PMC3542197, “Downregulation of the Mitochondrial Phosphatase PTPMT1 Is Sufficient to Promote Cancer Cell Death” (PLoS ONE, 2013) are described below.

The target in this assay is T1, PTPMT1 (Protein Tyrosine Phosphatase localized to the Mitochondrion 1) (Homo sapiens, UniProt Q8WUK0).
T1 construct: human PTPMT1 open reading frame cloned into pGEX-KG, purified using glutathione-conjugated sepharose
T1 sequence (Q8WUK0 1-201): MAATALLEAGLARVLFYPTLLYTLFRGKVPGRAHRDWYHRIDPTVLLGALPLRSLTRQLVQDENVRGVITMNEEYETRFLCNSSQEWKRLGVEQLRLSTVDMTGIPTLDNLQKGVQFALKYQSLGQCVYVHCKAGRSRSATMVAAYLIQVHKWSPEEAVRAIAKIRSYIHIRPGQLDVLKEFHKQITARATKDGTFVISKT
Put plainly: in vitro phosphatase assay with recombinant enzyme, OMFP substrate, fluorescence readout. It is filed as biochemical.

For the molecule `CCCCC(CC)CNC(=N)NC(=N)NCCCCCCNC(=N)NC(=N)NCC(CC)CCCC` (stereo not shown) [alexidine dihydrochloride], the pIC50 was 5.60.

As usually defined, the pIC50 is the IC50 on a negative log10 scale, so that one unit is a factor of ten.
